Test results reported in patent publication EP0437336B1, “Biophosphoryl hydrazines and their use as pesticides” (priority 1990, dated 1991).
≈ marks a conversion by molar mass, not a printed value. Where two headings read alike, the source gives them in different places.

How the values were obtained:
[1] = test system: southern corn rootworm, Diabrotica undecimpunctata howardi; conditions: for foliar systemic nonagressive Method B crw % control at 0.56 kg/ha (0.5 lb/acre): percent control relative to infested check, from root damage ratings, 14 days post-spraying; for pest or weed control at 560 g/ha: Diabrotica undecimpunctata, in Zea mays, foliar, 336 h, read-out: foliar systemic nonagressive Method B crw % control at 0.56 kg/ha (0.5 lb/acre)
Two-Spotted Spider Mite = assay: Biological Method D: Foliar Insecticidal Activity Test, mite test; format: in vivo, Tetranychus urticae; parameters: key to LC50 TSM: I = inactive at concentration listed; conditions: for LC50: Tetranychus urticae
Boll Weevil [2] = assay: Biological Method D: Foliar Insecticidal Activity Test, boll weevil test; format: in vivo, Anthonomous grandis; parameters: key: I = inactive at concentration listed
Method: (§1) Biological Method D: Foliar Insecticidal Activity Test
(§2) In evaluating the foliar insecticidal activity of the compounds of this invention against insects and mites, the following test procedures were employed.
(§3) Not all compounds were tested at each of the several concentrations stated above. Test concentrations of a compound were selected as those most likely to differentiate dose response of a particular compound toward a particular test insect.
(§4) Initial evaluations were made on one or more of the following pests:
For the boll weevil test, 10 adult weevils were placed in a 0.24 ℓ (0.5 pint) glass Mason jar containing a small cube of apple. The weevils were confined to the jar by fiberglass screen mesh secured by a screw-type rim cap. The jars were then sprayed with the test solution using a rotating turntable; directing the spray through the mesh into the jar. The percentage killed was determined after forty-eight and ninety six hours.
(§5) The mortalities obtained in this manner were plotted on logarithmic probability paper.
(§6) The rotating turntable consists of a fixed, continuously operating spray nozzle under which targets are rotated at a fixed speed and distance. If the target is a Petri dish (such as for the bean beetle, armyworm, mite, or aphid tests), the distance from the nozzle is 38.1 cm (15 inches). If the target is a Mason jar (such as for the boll weevil test), the distance from the nozzle is 17.8 cm (7 inches). The nozzle is located 8 inches from the rotating shaft. The targets on individual platforms revolve around the shaft at 1 revolution per 20 seconds but only a brief portion of this time occurs in the spray path. Targets pass only once under the nozzle and then are removed to drying hoods.
(§7) The nozzle used is a 1/4 JCO Spraying Systems (Wheaton, Illinois) air atomizing nozzle equipped with a No. 2850 fluid cap and a No. 70 air cap. At the 68.95 x 10³ Pa gauge (10 psig) air pressure used and with liquid siphon feed, 1.89 ℓ/hr [0.5 GPH (gallons per hour)] are delivered in a round spray pattern with a 21 degree spray angle. Targets are misted with spray droplets to the point that the droplets coalesce to form a uniform thin film insufficient to drown test organisms.

Southern Armyworm [3] = assay: Biological Method D: Foliar Insecticidal Activity Test, Southern Armyworm test; format: in vivo, Spodoptera eridania; parameters: key: I = inactive at concentration listed
Method: as §1, §2, §3, §4
(§8) For the Mexican Bean Beetle and Southern armyworm tests, individual lima bean (Phaseolus limeniss var. Woods' Prolific) leaves were placed on moistened pieces of filter paper in Petri dishes. The leaves were then sprayed with the test solution using a rotating turntable and allowed to dry. The dishes were then infested with 10 third instar larvae of either the Mexican Been Beetle or the Southern Armyworm. The dishes were then covered. Percent mortality was determined for each species and spray concentration at 48 and 96 hours after treatment.
as §5, §6, §7

[4] = test system: southern corn rootworm, Diabrotica undecimpunctata howardi; assay: Biological Method A: Corn Rootworm Screening Test (treated non-aggressive soil); conditions: soil concentration giving 90% mortality, 10 days at 27°C
Mexican Bean Beetle = assay: Biological Method D: Foliar Insecticidal Activity Test, Mexican Bean Beetle test; format: in vivo, Epilachna varivestis; conditions: Epilachna varivestis
Green Peach Aphid [5] = assay: Biological Method D: Foliar Insecticidal Activity Test, aphid test; format: in vivo, Myzus persicae; parameters: key: I = inactive at concentration listed
Method: as §1, §2, §3, §4
(§9) For the aphid test, infested broccoli (Brassica oleracea italica var. DiCicco) leaves containing about 50 aphids were placed in a Petri dish lid on a moistened piece of cotton. The leaves were then sprayed to thorough wetness with the test solution using a rotating turntable, held for twenty-four hours and then the percentage killed was determined.
as §5, §6, §7

Southern Armyworm [6] = assay: Biological Method D: Foliar Insecticidal Activity Test, Southern Armyworm test; format: in vivo, Spodoptera eridania; conditions: foliar spray; for AW 48 hrs LC50: 48 hours after treatment; for AW 96 hrs LC50: 96 hours after treatment
Method: as §1, §2, §3, §4, §8, §5, §6, §7

[7] = test system: southern corn rootworm, Diabrotica undecimpunctata howardi; conditions: at-planting soil application
Green Peach Aphid [8] = assay: Biological Method D: Foliar Insecticidal Activity Test, aphid test; format: in vivo, Myzus persicae; conditions: foliar spray; kill after twenty-four hours
Method: as §1, §2, §3, §4, §9, §5, §6, §7

Boll Weevil [9] = assay: Biological Method D: Foliar Insecticidal Activity Test, boll weevil test; format: in vivo, Anthonomous grandis; conditions: spray into jar
[10] = Method D foliar test, Two-Spotted Spider Mite
[11] = Method D foliar test, Mexican Bean Beetle, 48 hrs, read-out: LC50 BB 48 hrs.
[12] = Method D foliar test, Mexican Bean Beetle, 96 hrs, read-out: LC50 BB 96 hrs
[13] = foliar spray, kill after twenty-four hours
[14] = foliar spray, 48 hours after treatment, read-out: BB 48 hrs. LC50
[15] = foliar spray, 96 hours after treatment, read-out: BB 96 hrs LC50
[16] = Method D foliar test, Two-Spotted Spider Mite, read-out: LC50 TSM

CCCOP(=S)(NNP(=S)(OCC)OCC)OCCC [Compound 13, reference compound]
foliar systemic nonagressive Method B crw % control at 0.56 kg/ha (0.5 lb/acre) [1]: 46% | LC50 TSM (Two-Spotted Spider Mite; [10]): I | LC50 BW 48 hrs (Boll Weevil [2]): I | LC50 BW 96 hrs (Boll Weevil [2]): I | LC50 AW 48 hrs (Southern Armyworm [3]): I | LC50 AW 96 hrs (Southern Armyworm [3]): I | primary nonagressive Method A crw LC90 [4]: <0.1 ppm | LC50 (Mexican Bean Beetle; [11]): 150 µg/mL (≈ 412 µM) | LC50 (Mexican Bean Beetle; [12]): 52 µg/mL (≈ 143 µM) | LC50 GPA (Green Peach Aphid [5]): I

CCCCNP(=S)(NNP(=S)(OCC)OCC)OCC (stereo not shown) [Compound 74]
TSM LC50 (Two-Spotted Spider Mite; [13]): I | primary nonagressive Method A crw LC90 [4]: 1.1 ppm | AW 48 hrs LC50 (Southern Armyworm [6]): I | AW 96 hrs LC50 (Southern Armyworm [6]): I | LC50 (Mexican Bean Beetle; [14]): 740 µg/mL (≈ 2040 µM) | LC50 (Mexican Bean Beetle; [15]): 380 µg/mL (≈ 1050 µM) | secondary aggressive Method C crw LC50 ([7]; rated 17 days post-infestation): 1.03 kg/ha | secondary aggressive Method C crw LC50 ([7]; value in brackets): 0.92 lb/acre | GPA LC50 (Green Peach Aphid [8]): I | BW 48 hrs LC50 (Boll Weevil [9]): I | BW 96 hrs LC50 (Boll Weevil [9]): I

CCCOP(=S)(NNP(=S)(OCC)OCC)OCC (stereo not shown) [Compound 6]
foliar systemic nonagressive Method B crw % control at 0.56 kg/ha (0.5 lb/acre) [1]: 3% | LC50 (Two-Spotted Spider Mite; [16]): 150 µg/mL (≈ 428 µM) | LC50 BW 48 hrs (Boll Weevil [2]): I | LC50 BW 96 hrs (Boll Weevil [2]): I | LC50 AW 48 hrs (Southern Armyworm [3]): I | LC50 AW 96 hrs (Southern Armyworm [3]): I | primary nonagressive Method A crw LC90 [4]: <0.1 ppm | LC50 (Mexican Bean Beetle; [11]): 420 µg/mL (≈ 1200 µM) | LC50 GPA (Green Peach Aphid [5]): I

CCOP(=S)(NNP(=S)(OCC)OC(C)CC)OC(C)CC (stereo not shown) [Compound 65, N-(O-ethyl O-secbutylthiophosphoryl) N′-(O-ethyl O-secbutylthiophosphoryl) hydrazine, reference compound]
LC50 (Two-Spotted Spider Mite; 24 h, foliar spray, kill after twenty-four hours, read-out: TSM LC50): 245 µg/mL (≈ 624 µM) | primary nonagressive Method A crw LC90 [4]: 0.09 ppm | AW 48 hrs LC50 (Southern Armyworm [6]): I | AW 96 hrs LC50 (Southern Armyworm [6]): I | LC50 (Mexican Bean Beetle; [14]): 360 µg/mL (≈ 917 µM) | LC50 (Mexican Bean Beetle; [15]): 62 µg/mL (≈ 158 µM) | secondary aggressive Method C crw LC50 ([7]; rated 17 days post-infestation): 0.44 kg/ha | secondary aggressive Method C crw LC50 ([7]; value in brackets): 0.39 lb/acre | GPA LC50 (Green Peach Aphid [8]): I | BW 48 hrs LC50 (Boll Weevil [9]): I | BW 96 hrs LC50 (Boll Weevil [9]): I

CCOP(=S)(NNP(=S)(OCC)OC(C)C(F)(F)F)OCC (stereo not shown) [Compound 15]
pest or weed control at 560 g/ha [1]: 54% | LC50 TSM (Two-Spotted Spider Mite; [10]): I | LC50 BW 48 hrs (Boll Weevil [2]): I | LC50 BW 96 hrs (Boll Weevil [2]): I | LC50 AW 48 hrs (Southern Armyworm [3]): I | LC50 AW 96 hrs (Southern Armyworm [3]): I | primary nonagressive Method A crw LC90 [4]: <0.1 ppm | LC50 (Mexican Bean Beetle; [11]): 150 µg/mL (≈ 371 µM) | LC50 (Mexican Bean Beetle; [12]): 62 µg/mL (≈ 153 µM) | LC50 GPA (Green Peach Aphid [5]): I

CCCOP(=S)(NNP(=S)(OCC)OC(C)C)OCCC (stereo not shown) [Compound 82]
TSM LC50 (Two-Spotted Spider Mite; [13]): I | primary nonagressive Method A crw LC90 [4]: 0.7 ppm | AW 48 hrs LC50 (Southern Armyworm [6]): I | LC50 (Mexican Bean Beetle; [14]): 500 µg/mL (≈ 1320 µM) | LC50 (Mexican Bean Beetle; [15]): 150 µg/mL (≈ 396 µM) | secondary aggressive Method C crw LC50 ([7]; rated 17 days post-infestation): 0.95 kg/ha | secondary aggressive Method C crw LC50 ([7]; value in brackets): 0.85 lb/acre | GPA LC50 (Green Peach Aphid [8]): I

CCOP(=S)(NNP(=S)(OCC)OCC(C)C)OCC(C)C (stereo not shown) [Compound 66, reference compound]
TSM LC50 (Two-Spotted Spider Mite; [13]): I | primary nonagressive Method A crw LC90 [4]: 0.09 ppm | AW 48 hrs LC50 (Southern Armyworm [6]): I | AW 96 hrs LC50 (Southern Armyworm [6]): I | LC50 (Mexican Bean Beetle; [15]): 150 µg/mL (≈ 382 µM) | secondary aggressive Method C crw LC50 ([7]; rated 17 days post-infestation): ~1.91 kg/ha | secondary aggressive Method C crw LC50 ([7]; value in brackets): ~1.7 lb/acre | GPA LC50 (Green Peach Aphid [8]): I | BW 48 hrs LC50 (Boll Weevil [9]): I | BW 96 hrs LC50 (Boll Weevil [9]): I

CCCCOP(=S)(NNP(=S)(OCC)OCC)OCC (stereo not shown) [Compound 7]
foliar systemic nonagressive Method B crw % control at 0.56 kg/ha (0.5 lb/acre) [1]: 38% | LC50 (Two-Spotted Spider Mite; [16]): 150 µg/mL (≈ 412 µM) | LC50 BW 48 hrs (Boll Weevil [2]): I | LC50 BW 96 hrs (Boll Weevil [2]): I | LC50 AW 48 hrs (Southern Armyworm [3]): I | LC50 AW 96 hrs (Southern Armyworm [3]): I | primary nonagressive Method A crw LC90 [4]: 0.25 ppm | LC50 GPA (Green Peach Aphid [5]): I

C=CCOP(=S)(NNP(=S)(OCC)OCC)OCC (stereo not shown) [Compound 10]
foliar systemic nonagressive Method B crw % control at 0.56 kg/ha (0.5 lb/acre) [1]: 34% | LC50 (Two-Spotted Spider Mite; [16]): 510 µg/mL (≈ 1460 µM) | LC50 BW 48 hrs (Boll Weevil [2]): I | LC50 BW 96 hrs (Boll Weevil [2]): I | LC50 AW 48 hrs (Southern Armyworm [3]): I | LC50 AW 96 hrs (Southern Armyworm [3]): I | primary nonagressive Method A crw LC90 [4]: 0.79 ppm | LC50 (Mexican Bean Beetle; [12]): 78 µg/mL (≈ 224 µM) | LC50 GPA (Green Peach Aphid [5]): I

C#CCOP(=S)(NNP(=S)(OCC)OCC)OCC (stereo not shown) [Compound 12]
foliar systemic nonagressive Method B crw % control at 0.56 kg/ha (0.5 lb/acre) [1]: 30% | LC50 TSM (Two-Spotted Spider Mite; [10]): I | LC50 BW 48 hrs (Boll Weevil [2]): I | LC50 BW 96 hrs (Boll Weevil [2]): I | LC50 AW 48 hrs (Southern Armyworm [3]): I | LC50 AW 96 hrs (Southern Armyworm [3]): I | primary nonagressive Method A crw LC90 [4]: 0.56 ppm | LC50 (Mexican Bean Beetle; [11]): 150 µg/mL (≈ 433 µM) | LC50 (Mexican Bean Beetle; [12]): 62 µg/mL (≈ 179 µM) | LC50 GPA (Green Peach Aphid [5]): I

CCOP(=S)(NNP(=S)(OCC)OC(C)C)OCC (stereo not shown) [Compound 5]
foliar systemic nonagressive Method B crw % control at 0.56 kg/ha (0.5 lb/acre) [1]: 69% | LC50 (Two-Spotted Spider Mite; [16]): 150 µg/mL (≈ 428 µM) | LC50 BW 48 hrs (Boll Weevil [2]): I | LC50 BW 96 hrs (Boll Weevil [2]): I | LC50 AW 48 hrs (Southern Armyworm [3]): I | LC50 AW 96 hrs (Southern Armyworm [3]): I | primary nonagressive Method A crw LC90 [4]: <0.1 ppm | LC50 (Mexican Bean Beetle; [11]): 740 µg/mL (≈ 2110 µM) | LC50 GPA (Green Peach Aphid [5]): I

CCOP(=S)(NNP(=S)(OCC)OC(C)(C(F)(F)F)C(F)(F)F)OCC (stereo not shown) [Compound 39]
pest or weed control at 560 g/ha [1]: 46% | LC50 (Two-Spotted Spider Mite; [16]): 150 µg/mL (≈ 318 µM) | LC50 BW 48 hrs (Boll Weevil [2]): I | LC50 BW 96 hrs (Boll Weevil [2]): I | LC50 AW 48 hrs (Southern Armyworm [3]): I | LC50 AW 96 hrs (Southern Armyworm [3]): I | primary nonagressive Method A crw LC90 [4]: 0.71 ppm | LC50 (Mexican Bean Beetle; [11]): 31 µg/mL (≈ 65.6 µM) | LC50 (Mexican Bean Beetle; [12]): 150 µg/mL (≈ 318 µM) | LC50 GPA (Green Peach Aphid [5]): I
